Measurements as given in patent US9131685B2, “Compositions comprising a strigolactone compound and a chito-oligosaccharide compound for enhanced plant growth and yield” (Bayer CropScience AG, priority 2009, dated 2015).

Key:
soybean seeds = experiment: Germination test on soybean (agar plates, climate chamber); assay type: in vivo, soybean (variety Cordoba); conditions: seed treatment, 10° C. in darkness, after 4 days, average of 5 replicates of 20 seeds
Procedure: (§1) Test is performed in a climate chamber. 20 soybean seeds per treatment of the variety Cordoba were sown on agar plates (0.8% agar). 5 replicates were made. The active ingredient was solved in a solvent and seed treatment was performed with a lab equipment. Plates were incubated at 10° C. in darkness. After 4 days the germination rate and root length were assessed.
(§2) average of 5 replicates of 20 seeds

wheat seeds = experiment: Germination test on wheat (agar plates, climate chamber); assay type: in vivo, wheat (variety Tuareg); conditions: seed treatment, 10° C. in darkness, after 2 days, average of 5 replicates of 20 seeds
Procedure: as §1, with “For wheat experiments” for “Test is performed in a climate chamber.”, “wheat” for “soybean”, “Tuareg” for “Cordoba”, “(1.4%” for “(0.8%”, “2” for “4”
as §2

soybean = experiment: Greenhouse experiments on soybean (seed treatment, root weight and leaf area); assay type: in vivo, soybean (variety Cordoba); conditions: sand/perlite with arbuscular mycorrhizal inoculum, 6 weeks greenhouse, average of 3 replicates of 5 plants
Procedure: Test is performed in the greenhouse. 5 soybean seeds per treatment of the variety Cordoba were sown in 500 ml rose pots (7×7×18 cm) containing a mix of sand and perlite (1:1). 3 replicates were made. The active ingredient was solved in a solvent and seed treatment was performed with a lab equipment.
To inoculate with arbuscular mycorrhizal fungi, 10 g inoculum (Vaminoc; MicroBio Ltd.) were mixed with 1 l of the sand-perlite mixture.
Seeds were covered by 3 cm of LECA (light expanded clay aggregate). Pots were incubated in the greenhouse for 6 weeks at 22° C./15° C. (day/night) and 80% relative humidity. Assessment consisted of root weight and leaf area.
average of 3 replicates of 5 plants

Winter wheat = experiment: Field trials 2: winter wheat, Germany (Bergisches Land); assay type: in vivo, Winter wheat (variety Dekan); conditions: in comparison to the untreated control
Procedure: b) Field trials 2: Winter wheat: Germany (Bergisches Land):
Seeds of the variety “Dekan” were planted on December with a seed density of 400 seeds/m^2 on a non-fertilized soil. The plot size was 6 m×2.5 m (=15 m^2) and four randomised replicates were used. The application of plant protection products were carried out according to the good agricultural practise. The evaluation of different growth parameters was done during the season.
Dosages Winter Wheat (Bergisches Land):
Base: Insecticide (I): Imidacloprid; Fungicides (F): Fluoxastrobin & Tebuconazole & Prothioconazole.

SMILES: CCCCCC/C=C\CCCOc1cccc(C(=O)NC2C(O[C@@H]3C(CO)OC(OC4C(CO)O[C@@H](O[C@@H]5C(CO)OC(OC6C(CO[C@@H]7OC(C)C(O)C(O)C7OC)OC(O)C(NC(C)=O)C6O)C(NC(C)=O)C5O)C(NC(C)=O)C4O)C(NC(C)=O)C3O)OC(CO)[C@@H](O)C2O)c1 (stereo partly shown) [Compound B3]
- Germination rate (soybean seeds): 59%
- Root length (soybean seeds): 5.13 cm
- Germination rate (wheat seeds): 17%
- Root length (wheat seeds): 2.18 cm

SMILES: CCCCCC/C=C\CCCOc1cccc(C(=O)NC2C(O)[C@H](O)C(CO)O[C@H]2O[C@@H]2C(CO)O[C@@H](O[C@@H]3C(CO)O[C@@H](O[C@@H]4C(CO)O[C@@H](O[C@@H]5C(CO[C@@H]6OC(C)[C@@H](O)C(O)C6O)OC(O)C(NC(C)=O)C5O)C(NC(C)=O)C4O)C(NC(C)=O)C3O)C(NC(C)=O)C2O)c1 (stereo partly shown) [Compound B2]
- Germination rate (soybean seeds): 68%
- Root length (soybean seeds): 5.61 cm
- Germination rate (wheat seeds): 18%
- Root length (wheat seeds): 2.02 cm

SMILES: OC(Cc1ccccc1Cl)(Cn1nc[nH]c1=S)C1(Cl)CC1 (stereo not shown) [Prothioconazole, reference compound]
- Leaf Area (soybean): 20.58 cm^2
- Root weight (soybean): 16.8 g

SMILES: CON=C(C(=O)OC)c1ccccc1CON=C(C)c1cccc(C(F)(F)F)c1 [Trifloxystrobin, reference compound]
- Leaf Area (soybean): 24.80 cm^2
- Root weight (soybean): 18.2 g

SMILES: CCCCCC/C=C\CCCOc1cccc(C(=O)NC2C(O[C@@H]3C(CO)OC(OC4C(CO)O[C@@H](O[C@@H]5C(CO)OC(OC6C(CO)OC(O)C(NC(C)=O)C6O)C(NC(C)=O)C5O)C(NC(C)=O)C4O)C(NC(C)=O)C3O)OC(CO)[C@@H](O)C2O)c1 (stereo partly shown) [Compound B1]
- Germination rate (soybean seeds): 58%
- Root length (soybean seeds): 5.64 cm
- Germination rate (wheat seeds): 8%
- Root length (wheat seeds): 2.34 cm
- yield in dt/ha, in words (Winter wheat): increased yield
- Leaf Area (soybean): 36.82 cm^2
- Root weight (soybean): 9.19 g

SMILES: CC1=CC(O/C=C2/C(=O)OC3c4ccccc4CC23)OC1=O (stereo not shown) [Compound A1]
- Germination rate (soybean seeds): 63%
- Root length (soybean seeds): 5.19 cm
- Germination rate (wheat seeds): 27%
- Root length (wheat seeds): 3.04 cm
- Leaf Area (soybean): 35.67 cm^2
- Root weight (soybean): 11.13 g
